Reference: article PMC8508710, “Biochemical Characterization of 13-Lipoxygenases of Arabidopsis thaliana” (International Journal of Molecular Sciences, 2021)
Several values for one entry are separate records, joined by “and”; a condition that tells them apart may be missing. Equal values may be shown once.

Legend:
[1] = target: T1, LOX4 (Arabidopsis thaliana, UniProt Q9FNX8); experiment: LOX4 activity, oxygen electrode (polarography); format: biochemical; design: made in house; host or cells: E. coli Nico21(DE3), pET15b; conditions: 1.3 mM GSH, 140 µM 12-OPDA
T1 sequence (Q9FNX8 71-926): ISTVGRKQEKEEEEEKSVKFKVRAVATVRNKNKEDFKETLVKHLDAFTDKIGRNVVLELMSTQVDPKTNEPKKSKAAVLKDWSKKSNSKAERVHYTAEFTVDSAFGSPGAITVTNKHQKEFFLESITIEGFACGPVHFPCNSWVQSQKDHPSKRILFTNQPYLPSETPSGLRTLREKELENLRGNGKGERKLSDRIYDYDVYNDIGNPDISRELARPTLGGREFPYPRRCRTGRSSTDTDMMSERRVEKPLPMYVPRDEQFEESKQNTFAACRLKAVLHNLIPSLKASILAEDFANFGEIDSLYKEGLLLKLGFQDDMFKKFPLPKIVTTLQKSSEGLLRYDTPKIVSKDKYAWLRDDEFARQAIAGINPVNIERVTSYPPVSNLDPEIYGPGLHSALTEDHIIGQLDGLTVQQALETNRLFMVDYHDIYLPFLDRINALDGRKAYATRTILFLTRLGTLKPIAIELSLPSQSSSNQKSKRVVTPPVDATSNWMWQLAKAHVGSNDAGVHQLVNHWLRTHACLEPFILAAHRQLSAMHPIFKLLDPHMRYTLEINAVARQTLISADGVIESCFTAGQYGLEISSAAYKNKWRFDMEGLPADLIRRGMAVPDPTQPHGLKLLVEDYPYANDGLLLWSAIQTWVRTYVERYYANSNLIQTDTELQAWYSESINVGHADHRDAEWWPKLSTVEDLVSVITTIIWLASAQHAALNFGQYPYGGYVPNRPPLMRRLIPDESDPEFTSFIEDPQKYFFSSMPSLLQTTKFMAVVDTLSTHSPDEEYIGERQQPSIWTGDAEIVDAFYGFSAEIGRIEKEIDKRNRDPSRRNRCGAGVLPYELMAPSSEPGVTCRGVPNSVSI

[2] = target: T2, LOX3 (Arabidopsis thaliana, UniProt Q9LNR3); experiment: LOX3 activity, spectrophotometric (conjugated diene formation at 234 nm); conditions: for Relative Activity (%) LOX3: substrate specificity, 31 µM PUFA, 4 µg 13-LOX, LeA = 100%
T2 sequence (Q9LNR3 71-919): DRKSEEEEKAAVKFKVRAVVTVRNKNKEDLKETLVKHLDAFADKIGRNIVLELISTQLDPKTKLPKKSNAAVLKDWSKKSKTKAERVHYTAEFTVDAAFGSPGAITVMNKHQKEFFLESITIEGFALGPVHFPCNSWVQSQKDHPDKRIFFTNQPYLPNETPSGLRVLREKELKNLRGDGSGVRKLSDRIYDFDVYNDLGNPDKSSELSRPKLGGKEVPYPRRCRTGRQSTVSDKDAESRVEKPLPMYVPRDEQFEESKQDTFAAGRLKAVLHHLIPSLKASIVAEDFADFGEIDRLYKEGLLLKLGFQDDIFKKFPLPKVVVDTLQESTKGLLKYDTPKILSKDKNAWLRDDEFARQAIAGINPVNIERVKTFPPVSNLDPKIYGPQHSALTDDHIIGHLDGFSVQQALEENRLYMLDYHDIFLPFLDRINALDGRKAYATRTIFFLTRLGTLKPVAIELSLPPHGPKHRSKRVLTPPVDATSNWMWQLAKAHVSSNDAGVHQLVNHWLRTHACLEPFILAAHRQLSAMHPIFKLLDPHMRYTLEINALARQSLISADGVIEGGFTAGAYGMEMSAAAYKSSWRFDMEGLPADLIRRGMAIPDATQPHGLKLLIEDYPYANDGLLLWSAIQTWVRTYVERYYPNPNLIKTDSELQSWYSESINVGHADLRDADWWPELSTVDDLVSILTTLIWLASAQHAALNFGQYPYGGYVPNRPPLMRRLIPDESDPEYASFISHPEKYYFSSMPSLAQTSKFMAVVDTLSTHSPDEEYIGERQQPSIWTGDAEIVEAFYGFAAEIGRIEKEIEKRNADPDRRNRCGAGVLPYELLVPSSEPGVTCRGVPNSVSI

[3] = target: T1, LOX4; experiment: LOX4 activity, spectrophotometric (conjugated diene formation at 234 nm); conditions: for Relative Activity (%) LOX4: substrate specificity, 31 µM PUFA, 4 µg 13-LOX, LeA = 100%
[4] = target: T3, LOX2 (Arabidopsis thaliana, UniProt P38418); experiment: LOX2 activity, spectrophotometric (conjugated diene formation at 234 nm); conditions: for Relative Activity (%) LOX2: substrate specificity, 31 µM PUFA, 4 µg 13-LOX, LeA = 100%
T3 sequence (P38418 71-896): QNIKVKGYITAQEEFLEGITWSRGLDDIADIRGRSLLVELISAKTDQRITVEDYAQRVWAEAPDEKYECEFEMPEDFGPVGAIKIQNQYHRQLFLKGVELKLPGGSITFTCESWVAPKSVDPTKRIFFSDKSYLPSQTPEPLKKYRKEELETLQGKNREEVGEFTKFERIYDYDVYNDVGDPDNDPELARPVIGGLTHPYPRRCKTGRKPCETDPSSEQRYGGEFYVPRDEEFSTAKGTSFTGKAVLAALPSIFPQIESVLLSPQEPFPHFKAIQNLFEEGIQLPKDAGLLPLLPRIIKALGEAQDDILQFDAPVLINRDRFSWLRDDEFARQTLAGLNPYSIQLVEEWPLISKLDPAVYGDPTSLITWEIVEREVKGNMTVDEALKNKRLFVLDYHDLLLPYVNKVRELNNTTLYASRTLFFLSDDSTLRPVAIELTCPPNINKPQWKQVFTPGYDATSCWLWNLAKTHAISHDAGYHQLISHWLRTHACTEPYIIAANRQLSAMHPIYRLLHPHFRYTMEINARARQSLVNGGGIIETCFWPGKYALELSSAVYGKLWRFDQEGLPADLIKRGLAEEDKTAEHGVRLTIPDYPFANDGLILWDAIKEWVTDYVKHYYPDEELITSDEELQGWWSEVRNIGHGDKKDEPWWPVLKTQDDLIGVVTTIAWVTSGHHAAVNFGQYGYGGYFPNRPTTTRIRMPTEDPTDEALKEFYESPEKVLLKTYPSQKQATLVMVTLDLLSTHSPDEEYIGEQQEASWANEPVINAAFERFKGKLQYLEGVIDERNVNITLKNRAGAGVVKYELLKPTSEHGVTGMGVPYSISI

[5] = target: T3, LOX2; design: made in house; host or cells: E. coli Nico21(DE3), pET15b; method as in PMID 18949503; conditions: cited from earlier work
[6] = target: T4, LOX6 (Arabidopsis thaliana, UniProt Q9CAG3); experiment: LOX6 activity, spectrophotometric (conjugated diene formation at 234 nm); conditions: for Relative Activity (%) LOX6: substrate specificity, 31 µM PUFA, 4 µg 13-LOX, LeA = 100%
T4 sequence (Q9CAG3 41-917): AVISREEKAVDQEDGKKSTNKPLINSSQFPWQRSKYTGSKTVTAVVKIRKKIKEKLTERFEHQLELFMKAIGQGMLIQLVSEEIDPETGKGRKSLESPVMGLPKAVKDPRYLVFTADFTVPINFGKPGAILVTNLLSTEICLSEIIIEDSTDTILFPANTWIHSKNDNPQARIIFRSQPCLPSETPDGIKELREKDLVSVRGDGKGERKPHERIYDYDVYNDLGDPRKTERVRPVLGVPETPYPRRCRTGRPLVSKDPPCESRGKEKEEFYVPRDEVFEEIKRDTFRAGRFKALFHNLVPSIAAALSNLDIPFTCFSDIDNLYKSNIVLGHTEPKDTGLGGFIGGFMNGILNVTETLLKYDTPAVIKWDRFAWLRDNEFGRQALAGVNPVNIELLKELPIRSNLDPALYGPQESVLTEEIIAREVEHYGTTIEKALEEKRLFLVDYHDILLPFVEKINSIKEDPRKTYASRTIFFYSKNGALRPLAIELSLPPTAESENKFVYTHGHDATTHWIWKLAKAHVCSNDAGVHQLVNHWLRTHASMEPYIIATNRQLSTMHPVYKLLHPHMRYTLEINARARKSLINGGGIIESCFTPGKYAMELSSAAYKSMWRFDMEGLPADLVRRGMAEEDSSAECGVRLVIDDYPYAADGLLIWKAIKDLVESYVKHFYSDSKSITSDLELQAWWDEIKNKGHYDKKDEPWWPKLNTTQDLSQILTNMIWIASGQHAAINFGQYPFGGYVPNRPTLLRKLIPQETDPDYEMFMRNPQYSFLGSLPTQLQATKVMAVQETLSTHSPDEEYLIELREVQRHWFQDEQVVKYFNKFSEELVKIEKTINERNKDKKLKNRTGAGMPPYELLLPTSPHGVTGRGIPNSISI

[7] = read-out: Inhibition after pre-incubation with PUFA
[8] = read-out: Km app, substrate LeA, Michaelis Menten fit, apparent
[9] = enzyme 0.225 µg/µL incubated 10 min 30 °C with 280 µM chemical, 4.8 µM LeA, 50 mM Tris-HCl pH 7.2, vs solvent control

N[C@@H](CCC(=O)N[C@@H](CS)C(=O)NCC(=O)O)C(=O)O [GSH]
Protective effect on LOX4 against 12-OPDA ([1]; 12.2 µg LOX4): ~ 7.1%
Protective effect on LOX4 against 12-OPDA ([1]; doubled LOX4 concentration): ~ 11.7%

CCCCC/C=C\C/C=C\CCCCCCCC(=O)O [LA, linoleic acid]
inhibition at 118 µM [2, 7]: > 50%
Relative Activity (%) LOX3 ([2]; 50 mM Tris-HCl pH 7.2): 12 ± 1%
inhibition at 118 µM [3, 7]: > 50%
Relative Activity (%) LOX4 ([3]; 50 mM Tris-HCl pH 7.2): 11 ± 1%
Relative Activity (%) LOX2 ([4]; 50 mM Tris-HCl pH 7.2): 79% and 79 ± 7%
LOX2 activity with PUFA (relative) [5]: ~ 40%
inhibition at 29 µM [6, 7]: > 50%
Relative Activity (%) LOX6 ([6]; 50 mM Tris-HCl pH 7.2): 17 ± 1%

CC/C=C\C/C=C\C/C=C\CCCCCCCC(=O)O [LeA, α-linolenic acid]
Maximum activity in pH profile ([2]; LeA 9.8 µM, optimal pH): 50.5±2.8 nmol·s^−1·mg^−1
Relative Activity (%) LOX3 ([2]; 50 mM Tris-HCl pH 7.2): 100%
Maximum activity in pH profile ([3]; LeA 9.8 µM, optimal pH 7.2): 62.3 ± 0.4 nmol·s^−1·mg^−1
Km [3, 8]: 5.8 µM
Vmax app ([3]; substrate LeA, Michaelis Menten fit, apparent): 128 ± 18 nmol/s/mg and 128 nmol/s/mg
Relative Activity (%) LOX4 ([3]; 50 mM Tris-HCl pH 7.2): 100%
Maximum activity in pH profile ([4]; LeA 9.8 µM, optimal pH 6.6): 3.9 ± 0.4 nmol·s^−1·mg^−1
Km ([4]; read-out: Km app, substrate LeA, Michaelis Menten fit, apparent (purity and iron load not considered)): 26.3 ± 2 µM
Relative Activity (%) LOX2 ([4]; 50 mM Tris-HCl pH 7.2): 100%
Maximum activity in pH profile ([6]; LeA 9.8 µM, optimal pH): 1.6±0.1 nmol·s^−1·mg^−1
Km [6, 8]: 1.2 ± 0.4 µM
Relative Activity (%) LOX6 ([6]; 50 mM Tris-HCl pH 7.2): 100%

CCN1C(=O)C=CC1=O [NEM, N-ethylmaleimide]
Photometry Relative activity (%) LOX3 [2, 9]: 29 ± 10%
Photometry Relative activity (%) LOX4 [3, 9]: 3 ± 2%
Photometry Relative activity (%) LOX2 [4, 9]: 35 ± 10%
Photometry Relative activity (%) LOX6 [6, 9]: 13 ± 2%
